# Assay: Transmittance at 860 nm of the product dissolved in chloroform
# Format: physicochemical
# Settings: 860 nm; chloroform; product/chloroform=4 mg/100 ml
# Excerpt: In order to use colorants consisted in such optical filters, fairly high purity is required. However conventional near infrared rays absorbing colorants have low purity and inadequate absorption characteristics and thus can scarecely be used. Particularly in case of a 1,4,5,8-tetraanilidoanthraquinone, the allowable limit of its transmittance in the vicinity of 860 nm is at a level of about 95 to about 96% (a concentration of the dissolved colorant at the time of the transmittance measurement is 4 mg per 100 ml of chloroform). If its transmittance is below this level, the transmission of semiconductor laser beams is hindered noticeably, and therefore it is difficult to use such a colorant as a near infrared rays absorbing filter for measuring equipment and the like where particularly high accuracy is required.
# In general, laser beams used for the near infrared rays absorbing filters have a wavelength of 830 nm or more, but the wavelength depends upon use applications. In the examples described following, the most usual wavelength of about 860 nm was used to measure the transmittance of compounds represented by the formula (I), and the estimation was made by comparing absorption wave shapes.
# A mixture of 10.87 parts of 99%-purity 1,4,5,8-tetrachloroanthraquinone recrystallized from chlorobenzene, 27.2 parts of p-toluidine, 31.3 parts of p-chloroaniline, 13.4 parts of potasssium acetate, 1.24 parts of copper sulfate and 3.41 parts of benzyl alcohol was heated 130° C. under a nitrogen gas flow and the reaction mixture was then maintained at this temperature for 6.5 hours. Afterward, the reaction mixture was cooled to 70° C. and was then poured into 217 parts of ethanol, followed by filtration, ethanol washing, water washing and drying. The resultant crude product was then subjected to recrystallization from pyridine, thereby obtaining 14.2 parts of desired 1-(p-chloroanilido)-4,5,8-tris(p-methylanilido)anthraquinone (yield=70%) in high purity. By the use of a high-speed liquid chromatography (made by Shimadzu Seisakusho Ltd., SHIM-PACK CLC-ODS column, acetonitrile development, detection at 254 nm), it was confirmed that the purity of the product was 99.5%. In addition, the transmittance at 860 nm of the product in chloroform was 99% (product/chloroform=4 mg/100 ml).
# The same procedure as in Example 1 or 3 was repeated to synthesize the compounds shown in Table 1, and yield, purity and transmittance at 860 nm of each product were then measured. The respective substituents A, B, C and D in the table correspond to those of formula (I).
# *The transmittance was measured at 860 nm in chloroform.
row,Compound,transmittance at 860 nm of the product in chloroform
1,"Cc1ccc(Nc2ccc(Nc3ccc(C)cc3)c3c2C(=O)c2c(Nc4ccc(C)cc4)ccc(Nc4ccc(Cl)cc4)c2C3=O)cc1 [Example 1, 1-(p-chloroanilido)-4,5,8-tris(p-methylanilido)anthraquinone]",99%
2,"CCCCc1ccc(Nc2ccc(Nc3ccc(Cl)cc3)c3c2C(=O)c2c(Nc4ccc(CCCC)cc4)ccc(Nc4ccc(CCCC)cc4)c2C3=O)cc1 [Example 2, 1-(p-chloroanilido)-4,5,8-tris(p-n-butylanilido)anthraquinone]",99.2%
3,"Cc1ccc(Nc2ccc(Nc3ccc(C)cc3)c3c2C(=O)c2c(Nc4ccc(C)cc4)ccc(Nc4ccc(C)cc4)c2C3=O)cc1 [Comparative Example 1, 1,4,5,8-tetrakis(p-methylanilido)anthraquinone, reference compound]",99%
4,"Cc1ccc(Nc2ccc(Nc3ccc(C)cc3)c3c2C(=O)c2c(Nc4ccc(Cl)cc4)ccc(Nc4ccc(Cl)cc4)c2C3=O)cc1 [Example 3, 1,4-bis(p-chloroanilido)-5,8-bis(p-methylanilido)anthraquinone]",99.6%

# Same assay, conditions: measured at 860 nm in chloroform (Table 1)
row,Compound,Transmittance*
1,Cc1ccc(Nc2ccc(Nc3ccc(C)cc3)c3c2C(=O)c2c(Nc4ccc(C)cc4)ccc(Nc4ccc(F)cc4)c2C3=O)cc1 [Example 10],99.2%
2,O=C1c2c(Nc3ccc(O)cc3)ccc(Nc3ccc(O)cc3)c2C(=O)c2c(Nc3ccc(Cl)cc3)ccc(Nc3ccc(Cl)cc3)c21 [Example 8],98.5%
3,O=C1c2c(Nc3ccccc3)ccc(Nc3ccccc3)c2C(=O)c2c(Nc3ccc(Cl)cc3)ccc(Nc3ccccc3)c21 [Example 4],98.8%
4,COc1ccc(Nc2ccc(Nc3ccc(OC)cc3)c3c2C(=O)c2c(Nc4ccc(OC)cc4)ccc(Nc4cccc(F)c4)c2C3=O)cc1 [Example 12],99.6%
5,Cc1ccc(Nc2ccc(Nc3ccc(C4CCCCC4)cc3)c3c2C(=O)c2c(Nc4ccc(Br)cc4)ccc(Nc4ccc(C5CCCCC5)cc4)c2C3=O)cc1 [Example 13],99.1%
6,COc1ccc(Nc2ccc(Nc3ccc(Cl)cc3)c3c2C(=O)c2c(Nc4ccc(OC)cc4)ccc(Nc4ccc(OC)cc4)c2C3=O)cc1 [Example 5],98.9%
7,O=C1c2c(Nc3ccc(Cl)cc3)ccc(Nc3ccc(C4CCCCC4)cc3)c2C(=O)c2c(Nc3ccc(C4CCCCC4)cc3)ccc(Nc3ccc(C4CCCCC4)cc3)c21 [Example 7],99.2%
8,O=C1c2c(Nc3ccc(Cl)cc3)ccc(Nc3ccc(Cl)cc3)c2C(=O)c2c(Nc3ccc(Cl)cc3)ccc(Nc3ccc(Cl)cc3)c21 [Example 6],100%
9,Cc1ccc(Nc2ccc(Nc3ccc(Cl)cc3)c3c2C(=O)c2c(Nc4ccc(C5CCCCC5)cc4)ccc(Nc4ccc(C)cc4)c2C3=O)cc1 [Example 9],99.5%
10,Cc1ccc(Nc2ccc(Nc3ccc(C)cc3)c3c2C(=O)c2c(Nc4ccc(C)cc4)ccc(Nc4cccc(Br)c4)c2C3=O)cc1 [Example 11],98.2%

# Assay: Transmittance-versus-wavelength curve in chloroform (FIG. 1), judged as a near infrared filter
# Format: physicochemical
# Settings: curve 3 of FIG. 1
# Excerpt: FIG. 1 is a graph illustrating transmittance to wavelength of a solution in chloroform of the compounds of Examples 1 and 3 and Comparative Example 1, in which carves 1, 2 and 3 are the absorption curves of the compounds of Example 1, Example 3 and Comparative Example i respectively.
# In the anthraquinone of present invention, at least one of four anilido benzene rings is substituted by a halogen atom such as chlorine, fluorine and bromine, which preferably is in the p-position. The anthraquinone bearing a halogen atom realizes a wave shape of the light absorption of the absorption curves of these compounds render them very suitable for near infrared rays absorbing filters. That is, the anthraquinone bearing a halogen atom can mostly absorb the light in the wavelength range of 700 to 800 nm and realize the transmittance curve which is steeper slope in vicinity of 800 nm than one of other anthraquinone bearing no halogen atom.
# In general, laser beams used for the near infrared rays absorbing filters have a wavelength of 830 nm or more, but the wavelength depends upon use applications. In the examples described following, the most usual wavelength of about 860 nm was used to measure the transmittance of compounds represented by the formula (I), and the estimation was made by comparing absorption wave shapes. […]
row,Compound,transmission of the product in a 800-830 wavelength range
1,"Cc1ccc(Nc2ccc(Nc3ccc(C)cc3)c3c2C(=O)c2c(Nc4ccc(C)cc4)ccc(Nc4ccc(C)cc4)c2C3=O)cc1 [Comparative Example 1, 1,4,5,8-tetrakis(p-methylanilido)anthraquinone, reference compound]",poor

# Source: patent US5342974A, “Halogenated anthraquinone and their use as near infrared rays absorbing optical filters” (Mitsui Toatsu Chemicals, Incorporated, priority 1987, dated 1994)
